Tests used:
[1] = Therapeutic concentration range for paclitaxel
[2] = Paclitaxel analysis in rabbit lung implant study (blood, pleural fluid, lung tissue); format: in vivo
Method: An incision at the 8th intercostal space was made into the thorax of anesthetized rabbits. The Caudal lobe was partially released from the underlying ligament. Implants were affixed as a sandwich at the apical end of a resected caudal lobe. In all cases, 2 implants top & bottom were preloaded onto a 30 mm GIA stapler. Stapling and resection were performed using a 30 mm GIA stapler. Animals were sutured, air was removed from the thorax and the wound covered. […] A general schematic of the reset procedure is provided by FIG. 13A-D. For example, the stapler jaws (with the implant) are positioned to grasp the tissue (FIG. 13A). Staples are then deployed through the implant securing it to the tissue at the same time as the internal blade bisects the stapled tissue (FIG. 13B). The now bisected implant is released from the stapler. The resected tissue is removed.

CC(=O)O[C@H]1C(=O)[C@@]2(C)[C@H]([C@H](OC(=O)c3ccccc3)[C@]3(O)C[C@H](OC(=O)[C@H](O)[C@@H](NC(=O)c4ccccc4)c4ccccc4)C(C)=C1C3(C)C)[C@]1(OC(C)=O)CO[C@@H]1C[C@@H]2O [paclitaxel]
IC90 [1]: ~50 nM
IC90 (therapeutic concentration range) [1]: about 42.5 ng/ml
concentration at 14 days ([2]; blood and tissues outside the thorax, rabbit, day 14): < 0.5 ng/mL
Paclitaxel level in pleural fluid ([2]; paclitaxel coated buttress implants): 10 to 100 nM
Paclitaxel concentration in blood (below quantifiable limits) ([2]; rabbit, 2 days, 7 days and terminally at 14 days): < 500 pg/mL

Reference: patent publication US10888530B2, “Implantable drug delivery compositions and methods of use thereof” (AcuityBio Corporation, priority 2015, dated 2021)
